# Laboratory results published in patent US20260317356A1, “SMALL MOLECULE MODULATORS OF OGG1” (AZKARRA THERAPEUTICS, INC., priority 2023, published 2026).
# Molecular target: hOGG1 (Homo sapiens, UniProt O15527)
# Test: Biochemical fluorescence assay to measure enzymatic activity of hOGG1 (OGG1/APEX IC50)
# Set-up: Protein His-hOGG1 (12-323) was prepared; His (N); host or cells: E. coli
# Conditions: 1 nM OGG1+2 nM APEX+6 nM dsDNA (8-oxo-dG substrate); pH 7.5; RT 40 min; read-out: OGG1/APEX IC50
# Method: Biological Example 1: Biochemical Assay to Measure Enzymatic Activity of hOGG1 (OGG1/APEX IC50)
# The reported fluorescence-based assay (Donley et al ACS Chem Biol 2015; 10 (10), 2334-2343) was modified to include hAPE1/APEX1 protein. The oligonucleotide substrate with 8-oxo-dG lesion at X was prepared (LGC Biosearch, Petaluma, CA):
# Protein His-hOGG1 (12-323) was prepared by Chempartner Corporation via E. coliexpression and purification by Ni-NTA and S200 column to afford 95% purity by SDS-PAGE and SEC-HPLC analysis and hAPE1/APEX1 was purchased (SinoBiological). The assay was run in 384-well plates following the general procedure: (1) compound dilution; (2) addition of hOGG1/APEX1 to compound wells; (3) addition of DNA substrate to compound wells; (4) read Ex520/Em600 (TAMRA) fluorescence signal after 40 minutes; (5) calculate % inhibition/compound concentration; (6) calculate dose-response curve and IC50 value.
# • (1) 20 mM of compound solution was prepared in DMSO; • (2) Compounds were diluted to 10 mM in DMSO in ECHO Source plate (Labcyte PP-0200), by mixing […] DMSO; • (3) 4× dilution of compounds, for 10 points, by mixing […] DMSO; and • (4) Dispensed 150 nL compounds to assay plate (Corning 3573) in column 3-22. Dispensed 150 nL DMSO to Min and Max control wells in column 1-2 and column 23-24.
# • (1) Assay buffer was prepared (20 mM Tris pH 7.5, 100 mM KCl, 0.1% BSA, 0.01% Tween). • (2) […] buffer was added to Min control wells (Column 1-2). • (3) Enzyme was diluted to 2× with buffer (2 nM OGG1+4 nM APEX1). Dispensed […] (except Min control wells). Shake at 500 rpm at RT for 20 min. • (4) DNA substrate diluted to 2× with buffer (12 nM). Dispensed […]. Final concentration: 1 nM OGG1+2 nM APEX+6 nM dsDNA. Shake at RT for 40 min. • (5) Ex520/Em600 (TAMRA) was read.
# • (1) Calculated respective mean of Max and Min control wells. • (2) Converted data to percentage inhibition.
# Inhibition (%)=(Max mean−value)/(Max mean−Min mean)×100% • (3) Calculated sigmoidal curve (3-parameter) and IC50 (using GraphPad Prism software).
# Chain of hOGG1 (O15527 12-323): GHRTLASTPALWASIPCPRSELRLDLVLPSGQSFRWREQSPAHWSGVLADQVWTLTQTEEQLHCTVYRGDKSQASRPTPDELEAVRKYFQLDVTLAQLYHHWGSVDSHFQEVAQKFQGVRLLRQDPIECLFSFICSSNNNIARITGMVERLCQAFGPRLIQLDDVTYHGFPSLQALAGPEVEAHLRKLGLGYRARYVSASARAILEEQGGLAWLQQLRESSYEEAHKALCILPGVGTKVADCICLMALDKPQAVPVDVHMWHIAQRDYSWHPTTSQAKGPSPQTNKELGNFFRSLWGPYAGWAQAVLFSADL
row,SMILES,IC50
1,"COc1cc(NC(=O)[C@H]2CC[C@@H](N3Cc4c(Br)cc(NC(=O)CCN(C)C)cc4C3=O)CC2)ccc1C [Example 204, (1s,4s)-4-(4-Bromo-6-(3-(dimethylamino)propanamido)-1-oxoisoindolin-2-yl)-N-(3-methoxy-4-methylphenyl)cyclohexanecarboxamide]",< 100 nM
2,"Cc1cc(NCCN(C)C)cc2c1CN([C@H]1CC[C@@H](C(=O)Nc3ccc(Cl)c(F)c3)CC1)C2=O [Example 264, (1s,4s)-N-(4-Chloro-3-fluorophenyl)-4-(6-(2-(dimethylamino)ethylamino)-4-methyl-1-oxoisoindolin-2-yl)cyclohexanecarboxamide]",< 100 nM
3,"Cc1cccc2c1CN([C@H]1CC[C@@H](C(=O)Nc3ccc(=O)n(C)c3)CC1)C2=O [Example 246, (1s,4s)-4-(4-Methyl-1-oxoisoindolin-2-yl)-N-(1-methyl-6-oxo-1,6-dihydropyridin-3-yl)cyclohexanecarboxamide]",> 10000 nM
4,"Cc1cccc2c1CN([C@H]1CC[C@@H](C(=O)Nc3ccc4ncccc4c3)CC1)C2=O [Example 228, (1s,4s)-4-(4-Methyl-1-oxoisoindolin-2-yl)-N-(quinolin-6-yl)cyclohexanecarboxamide]",1000 to 10000 nM
5,"Cc1cccc2c1CN([C@H]1CC[C@@H](C(=O)Nc3ccc(Cl)c(F)c3)CC1)C2=O [Example 241, (1s,4s)-N-(4-Chloro-3-fluorophenyl)-4-(4-methyl-1-oxoisoindolin-2-yl)cyclohexanecarboxamide]",100 to 1000 nM
6,"COc1cc(NC(=O)[C@H]2CC[C@@H](N3Cc4c(C)cc(OCCN(C)C)cc4OC3=O)CC2)ccc1C [Example 117, (1s,4s)-4-(7-(2-(dimethylamino)ethoxy)-5-methyl-2-oxo-2H-benzo[e][1,3]oxazin-3(4H)-yl)-N-(3-methoxy-4-methylphenyl)cyclohexane-1-carboxamide]",100 to 1000 nM
7,"COc1cc(NC(=O)[C@H]2CC[C@@H](N3Cc4c(ccc(O)c4C)NC3=O)CC2)ccc1C [Example 60, (1s,4s)-4-(6-Hydroxy-5-methyl-2-oxo-1,2-dihydroquinazolin-3(4H)-yl)-N-(3-methoxy-4-methylphenyl)cyclohexanecarboxamide]",< 100 nM
8,"COc1cc(NC(=O)[C@@H]2CC[C@@H](N3Cc4c(C)cc(NCCN(C)C)cc4C3=O)C2)ccc1C [Example 139, (1R,3R)-3-(6-((2-(Dimethylamino)ethyl)amino)-4-methyl-1-oxoisoindolin-2-yl)-N-(3-methoxy-4-methylphenyl)cyclopentanecarboxamide]",> 10000 nM
9,"Cc1ncc(NC(=O)[C@H]2CC[C@@H](N3Cc4c(C)cccc4C3=O)CC2)s1 [Example 232, (1s,4s)-4-(4-Methyl-1-oxoisoindolin-2-yl)-N-(2-methylthiazol-5-yl)cyclohexanecarboxamide]",> 10000 nM
10,"COc1cc(NC(=O)[C@H]2CC[C@@H](N3Cc4c(N)cccc4C3=O)CC2)ccc1C [Example 154, (1s,4s)-4-(4-Amino-1-oxoisoindolin-2-yl)-N-(3-methoxy-4-methylphenyl)cyclohexanecarboxamide]",1000 to 10000 nM
11,"COc1cc(NC(=O)[C@H]2CC[C@@H](N3Cc4c(C)cc(O)cc4C3=O)CC2)ccc1C [Example 206, (1s,4s)-4-(6-Hydroxy-4-methyl-1-oxoisoindolin-2-yl)-N-(3-methoxy-4-methylphenyl)cyclohexanecarboxamide]",< 100 nM
12,"COc1cc(NC(=O)[C@H]2CC[C@@H](N3Cc4c(Cl)cccc4NC3=O)CC2)ccc1C [Example 68, (1s,4s)-4-(5-chloro-2-oxo-1,2-dihydroquinazolin-3(4H)-yl)-N-(3-methoxy-4-methylphenyl)cyclohexanecarboxamide]",100 to 1000 nM
13,"COc1cc(NC(=O)[C@H]2CC[C@@H](N3Cc4c(C)cnc(C#N)c4NC3=O)CC2)ccc1C [Example 22, (1s,4s)-4-(8-Cyano-5-methyl-2-oxo-1,2-dihydropyrido[3,4-d]pyrimidin-3(4H)-yl)-N-(3-methoxy-4-methylphenyl)cyclohexanecarboxamide]",< 100 nM
14,"Cc1cccc2c1CN([C@H]1CC[C@@H](C(=O)Nc3nc4ccccc4[nH]3)CC1)C2=O [Example 274, (1s,4s)-N-(1H-benzo[d]imidazol-2-yl)-4-(4-methyl-1-oxoisoindolin-2-yl)cyclohexanecarboxamide]",100 to 1000 nM
15,"COc1cc(NC(=O)[C@H]2CC[C@@H](N3Cc4c(C)ccc(Cl)c4C3=O)CC2)ccc1C [Example 144, (1s,4s)-4-(7-Chloro-4-methyl-1-oxoisoindolin-2-yl)-N-(3-methoxy-4-methylphenyl)cyclohexanecarboxamide]",< 100 nM
16,"COc1cc(NC(=O)[C@H]2CC[C@@H](n3[nH]c4c(C)cc(F)cc4c3=O)CC2)ccc1C [Example 119, (1s,4s)-4-(5-Fluoro-7-methyl-3-oxo-1,3-dihydro-2H-indazol-2-yl)-N-(3-methoxy-4-methylphenyl)cyclohexane-1-carboxamide]",100 to 1000 nM
17,"COc1cc(NC(=O)[C@H]2CC[C@@H](N3Cc4c(cccc4C(F)(F)F)C3=O)CC2)ccc1C [Example 147, (1s,4s)-N-(3-Methoxy-4-methylphenyl)-4-(1-oxo-4-(trifluoromethyl)isoindolin-2-yl)cyclohexanecarboxamide]",1000 to 10000 nM
18,"COc1cc(NC(=O)[C@@H]2[C@@H]3C[C@H](N4Cc5c(Br)cccc5C4=O)C[C@@H]32)ccc1C (single isomer, unassigned) [Example 267]",> 10000 nM
19,"COc1cc(NC(=O)[C@H]2CC[C@@H](N3Cc4c(ccc(OC5CNC5)c4C)NC3=O)CC2)ccc1C [Example 49, (1s,4s)-4-(6-(Azetidin-3-yloxy)-5-methyl-2-oxo-1,2-dihydroquinazolin-3(4H)-yl)-N-(3-methoxy-4-methylphenyl)cyclohexanecarboxamide]",100 to 1000 nM
20,"COc1ccc(NC(=O)[C@]2(C)CC[C@@H](N3Cc4c(C)cccc4NC3=O)CC2)cc1C (single isomer, unassigned) [Example 106, (1r,4r)-N-(4-methoxy-3-methylphenyl)-1-methyl-4-(5-methyl-2-oxo-1,2-dihydroquinazolin-3(4H)-yl)cyclohexanecarboxamide]",1000 to 10000 nM
21,"COc1cc(NC(=O)[C@H]2CC[C@@H](N3Cc4c(C)cc(NCC5(O)CNC5)cc4C3=O)CC2)ccc1C [Example 136, (1s,4s)-4-(6-(((3-hydroxyazetidin-3-yl)methyl)amino)-4-methyl-1-oxoisoindolin-2-yl)-N-(3-methoxy-4-methylphenyl)cyclohexanecarboxamide]",< 100 nM
22,"COc1cc(NC(=O)[C@H]2CC[C@@H](N3Cc4c(C)cc(NCC5CNC5)cc4C3=O)CC2)ccc1C [Example 195, (1s,4s)-4-(6-(Azetidin-3-ylmethylamino)-4-methyl-1-oxoisoindolin-2-yl)-N-(3-methoxy-4-methylphenyl)cyclohexanecarboxamide]",< 100 nM
23,"CCOC(=O)c1cccc2c1CN([C@H]1CC[C@@H](C(=O)Nc3ccc(C)c(OC)c3)CC1)C2=O [Example 169, Ethyl 2-((1s,4s)-4-(3-methoxy-4-methylphenylcarbamoyl)cyclohexyl)-1-oxoisoindoline-4-carboxylate]",> 10000 nM

# Same assay, conditions: OGG1/APEX IC50, 1 nM OGG1+2 nM APEX+6 nM dsDNA (8-oxo-dG substrate); pH 7.5; RT 40 min
row,SMILES,IC50
1,"COc1cc(NC(=O)[C@H]2CC[C@@H](N3Cc4c(C)cc(N)cc4C3=O)CC2)ccc1C [Example 192, (1s,4s)-4-(6-Amino-4-methyl-1-oxoisoindolin-2-yl)-N-(3-methoxy-4-methylphenyl)cyclohexanecarboxamide]",< 100 nM
